{
  "source": "paper PMC6628648",
  "about": "“Enabling microbial syringol conversion through structure-guided protein engineering” (Proceedings of the National Academy of Sciences of the …, 2019)",
  "assay_in_all_cases": "In vivo syringol conversion in shake flasks, 1H NMR of culture medium",
  "assay_type_in_all_cases": "cell-based",
  "key": {"[1]": {"tested_on": "Pseudomonas putida KT2440 strain AM157 expressing GcoA-F169A and GcoB", "conditions": "20 mM glucose, 1 mM syringol", "description": "(§1) A standard for 2-pyrone 6-carboxylate was not available; however, we did verify the presence of 2-pyrone 6-carboxylate using LC-MS-MS (SI Appendix, Fig. S15). While small amounts of pyrogallol, 3MC, and 2-pyrone 6-carboxylate were also observed with the WT GcoAB (AM156), nearly 60% of the original syringol remained after 6 h.\n(§2) Strains used for shake flask experiments were grown overnight in LB media and resuspended the next day in M9 minimal media with 20 mM glucose, as described in SI Appendix. Cells were grown until they reached an OD600 of approximately 1, at which point syringol was added at a final concentration of 1 mM. ^1H NMR spectroscopy was used to analyze syringol consumption.\n(§3) 572 nm was recorded by a Varioskan Lux microplate reader (Thermo Scientific). The absorbance was compared to a standard curve with 0-100 μM H2O2 to quantify the amount of peroxide produced in the reactions.\n(§4) Purified protein was buffer exchanged into 10 mM HEPES pH 7.5 and concentrated to an A280 value of 12, as measured on a NanoDrop 2000 spectrophotometer (Thermo Fisher). Crystals of GcoA were grown with 2.4 M sodium malonate and 200 mM substrate, dissolved in 40% DMSO where necessary. Crystals were cryocooled directly in liquid N2 without further addition of cryoprotectants. […]\n(§5) Strains evaluated in shake flask experiments were initially grown overnight in LB media with appropriate antibiotics from glycerol stocks and resuspended the following day in M9 minimal media (6.78 g/L Na2HPO4, 3 g/L KH2PO4, 0.5 g/L NaCl, 1 g/L NH4Cl, 2 mM MgSO4, 100 µM CaCl2, and 40 µM FeSO4 . 7H2O) supplemented with 20 mM glucose (Sigma-Aldrich) and […] kanamycin.\n(§6) Cells were grown until they reached an OD600 of 1, at which point syringol (Sigma-Aldrich) was added to a final concentration of 1 mM. Syringol concentrations were quantified using any 1H NMR, and spectra were collected using a Bruker Avance III HD 400 MHz Spectrometer and analyzed using Bruker TopSpin3.7 software. For identification of unknown compounds, samples were analyzed via LC-MS-MS using the Acquity UPLC system (Waters Inc.). […]"}, "[2]": {"tested_on": "Pseudomonas putida KT2440 strain AM156 expressing WT GcoAB", "conditions": "20 mM glucose, 1 mM syringol", "description": "as §1, §2, §3, §4, §5, §6"}, "[3]": {"tested_on": "Pseudomonas putida KT2440 strain AM155 lacking GcoAB", "conditions": "AM155 (does not express GcoA), 1 mM syringol", "description": "as §1, §2, §3, §4, §5, §6"}},
  "data": [
    {"smiles": "COc1cccc(OC)c1O", "note": "[syringol, 2,6-dimethoxyphenol]", "values": [
      {"measurement": "syringol 1H NMR peaks in culture medium after 6 h", "setting": "[1]", "result": "completely disappeared"},
      {"measurement": "original syringol remaining after 6 h", "setting": "[2]", "result": "~60", "unit": "%"},
      {"measurement": "syringol conversion after 6 h", "setting": "[3]", "result": "no conversion"}
    ]}
  ]
}
